Here are results for seven molecules from PubChem BioAssay (NCI).

Where “and” joins values, the source holds several entries; their conditions need not be identical. Equal entries are not always repeated.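 These data come from cells grown in 96-well plates and exposed to compound for 48 hours at five concentrations. Abbreviation: GI50, concentration required for 50% inhibition of growth. The concentration for full growth arrest is given as TGI.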

Common to all, as to test: NCI tumour cell line growth inhibition, 48 h
The test system of assay [1] is A498 renal.
Assay [2] concerns HOP-92 NSCLC.
Assay [3] has as its system HT29 colon.
Assay [4] concerns IGROV1 ovarian.
For assay [5], the system named is MDA-MB-435.
The subject of assay [6] is NCI-H460 lung.
The subject of assay [7] is RPMI-8226 leukemia.
For assay [8], the system named is SK-MEL-2 melanoma.

As to `CC/C(=C(\c1ccc(O)cc1)c1ccc(OCCNC)cc1)c1ccccc1`, the GI50 in assay [1] is 2330 nM and 1840 nM; in assay [3], 1710 nM and 1550 nM; in assay [4], 1930 nM and 1650 nM and 2380 nM; in assay [5] it was 1510 nM and 1570 nM and 1580 nM; in assay [6], 1980 nM and 1830 nM and 1890 nM; in assay [7], 2080 nM and 1990 nM and 2270 nM. In addition, in assay [8], the GI50 was 2040 nM and 1850 nM and 2100 nM. The TGI in assay [1] was 10200 nM and 4120 nM and 8670 nM; in assay [2], 2040 nM and 2960 nM and 7460 nM; in assay [3] it was 3390 nM and 2920 nM and 3460 nM; in assay [4] it was 4130 nM and 3250 nM and 5400 nM; in assay [5] it was 3040 nM and 3070 nM and 3020 nM; in assay [6] it was 3670 nM and 3450 nM and 3660 nM. Further, the TGI in assay [7] was 5050 nM and 4580 nM and 5730 nM; in assay [8] it was 4020 nM and 3650 nM and 3850 nM.

Take `N#CC1=C(N)Oc2c(sc3c(F)cccc23)C1c1ccc([N+](=O)[O-])cc1` (stereo unspecified): the GI50 is 21.9 nM in assay [1]; 156 nM in assay [2]; 323 nM in assay [3]; 152 nM in assay [4]; 27.2 nM in assay [5]; 253 nM in assay [6]. The GI50 in assay [7] was 215 nM; in assay [8], 170 nM. Besides, the TGI in assay [1] came out at 691 nM; in assay [2] it was 1180 nM; in assay [3], 1470 nM; in assay [4], 1560 nM; in assay [5], 84.8 nM; in assay [6], 1170 nM. Further, the values for the TGI in assay [7] and in assay [8] were 1450 nM and 1230 nM, respectively.

For `O=C1C(Nc2ccccn2)=C(I)C(=O)c2ncccc21`, the GI50 in assay [1] was 1260 nM; in assay [2], 1650 nM; in assay [3] it was 2750 nM; in assay [4] it was 741 nM; in assay [5], 307 nM; in assay [6], 295 nM. Besides, the GI50 is 1190 nM in assay [7] and 1760 nM in assay [8]. Moreover, the TGI in assay [1] was found to be 2740 nM; in assay [2] it was 4360 nM; in assay [3], 8480 nM; in assay [4], 2250 nM; in assay [5] it was 947 nM; in assay [6], 1100 nM. For the same molecule, the TGI in assay [7] was 3730 nM; in assay [8], 3510 nM.

`O=[N+]([O-])c1ccc2nc(N/N=C/c3ccc(O)cc3)sc2c1`: the GI50 was 5190 nM in assay [1]; 2170 nM in assay [2]; 8310 nM in assay [3]; 3840 nM in assay [4]; 3610 nM in assay [5]; 4180 nM in assay [6]. Also, the values for the GI50 in assay [7] and in assay [8] were 2560 nM and 4000 nM, respectively. In addition, the TGI was 27200 nM in assay [1]; 8960 nM in assay [2]; 28000 nM in assay [3]; over 100000 nM in assay [4]; 91900 nM in assay [5]; 24200 nM in assay [6]. Also, the TGI in assay [7] came to 15800 nM; in assay [8], 25700 nM.

As to `C/C=C(/C)C(=O)OC1C=C(CO)C(=O)C(OC(=O)/C(C)=C\C)C1C(C)C` (stereo unspecified), the GI50 in assay [1] is 1550 nM; in assay [2] it was 528 nM; in assay [3], 625 nM; in assay [4], 960 nM; in assay [5], 950 nM; in assay [6], 1250 nM. In addition, the results for the GI50 in assay [7] and in assay [8] were 337 nM and 1820 nM, respectively. Besides, the TGI in assay [1] came to 2950 nM; in assay [2], 1150 nM; in assay [3], 2330 nM; in assay [4], 2430 nM; in assay [5] it was 2330 nM; in assay [6] it was 2940 nM. Also, the figures for the TGI in assay [7] and in assay [8] were 1370 nM and 3470 nM, respectively.

As to `O=C(Nc1ccc(-n2cc(-c3ccncc3)c(-c3ccc(Cl)c(O)c3)n2)cc1)c1cc(Cl)cc(Cl)c1`, the GI50 was 17300 nM in assay [1]; 5570 nM in assay [2]; 2680 nM in assay [3]; over 100000 nM in assay [4]; 3450 nM in assay [5]; 4030 nM in assay [6]. For the same molecule, the GI50 in assay [7] was 793 nM; in assay [8], 5240 nM. In addition, the TGI is over 100000 nM in assay [1]; over 100000 nM in assay [2]; over 23600 nM in assay [3]; over 100000 nM in assay [4]; over 100000 nM in assay [5]; over 100000 nM in assay [6]. In addition, the values for the TGI in assay [7] and in assay [8] were 4140 nM and over 100000 nM, respectively.

Take `O=C=Nc1ccc(Cc2ccc(N=C=O)cc2)cc1` (tested in a mixture with another compound): the GI50 in assay [1], in assay [2], in assay [3], in assay [4], in assay [5] and in assay [6] was over 25 µg/mL throughout. Moreover, the GI50 in assay [7] and in assay [8] was over 25 µg/mL each time. The TGI in assay [1], in assay [2], in assay [3], in assay [4], in assay [5] and in assay [6] was over 25 µg/mL each time. Moreover, the TGI in assay [7] and in assay [8] was over 25 µg/mL throughout.
